{"source": "patent US7344829B2", "about": "“Methods for detecting the efficacy of anticancer treatments” (Board of Regents, the University of Texas System, priority 2000, dated 2008)", "key": {"VEGF": {"tested_on": "VEGF", "experiment": "In vitro expression of VEGF by L3.6pl cells (ELISA)", "assay_type": "cell-based, human", "conditions": "72 h, 1 μM PKI166 or 10 nM gemcitabine, control 1400 pg/ml", "description": "(§1) In vitro Expression of VEGF and IL-8. L3.6pl cells (2000 cells/38 mm^2 well) were plated into 96-well plates in 200 μl supplemented DMEM containing 5% FBS for 24 h, and then treated with 0.05, 0.5, or 1 μM PKI166. Supplemented DMEM (5% FBS) and human IgG (10 μg/ml) served as controls. Seventy-two hours later, the culture supernatants were collected, and the level of VEGF and IL-8 proteins (corrected for cell number) were determined by Quantikine ELISA kits."}, "[1]": {"tested_on": "L3.6pl human pancreatic cancer cells", "experiment": "Preliminary gemcitabine dose-response experiment in nude mice with pancreatic tumors", "assay_type": "in vivo", "conditions": "gemcitabine 250 mg/kg and 500 mg/kg compared to 125 mg/kg (data not shown)", "description": "To evaluate the therapeutic effect of gemcitabine in this animal model, a preliminary dose-response experiment was performed. […] All mice were killed on day 35. The volume of tumors and incidence of metastasis were determined."}, "[2]": {"tested_on": "L3.6pl human pancreatic cancer cells", "experiment": "Immunohistochemical analysis of human pancreatic carcinoma in the pancreas of treated nude mice", "assay_type": "in vivo", "conditions": "for PCNA+ tumor cells / TUNEL+ tumor cells: mean ± SD, 10 random 0.159-mm^2 fields at ×100; for CD (CD31, tumor MVD per field): staining with antibodies against CD31", "excerpt": "Immunohistochemical (IHC) Determination of VEGF, IL-8, PCNA, CD31/PECAM-1, and EGF-R. Paraffin-embedded tissues were used for identification of VEGF, IL-8, EGF-R, and proliferating cell nuclear antigen (PCNA). Sections (4–6 μm thick) were mounted on positively-charged Superfrost slides (Fisher Scientific, Co., Houston, Tex.) and dried overnight. Sections were deparaffinized in xylene followed by treatment with a graded series of alcohol (100%, 95%, 80% ethanol/ddH2O [v/v]) and rehydrated in PBS, pH 7.5. Sections analyzed for PCNA were microwaved 5 min for “antigen retrieval” (Shi et al. 1991). All other paraffin-embedded tissues were treated with pepsin (Biomeda) for 15 min at 37° C. and washed with PBS. Frozen tissues used for identification of CD31/PECAM-1, and activated EGF-R were sectioned (8–10 μm), mounted on positively charged Plus slides (Fisher Scientific), and air-dried for 30 min. Frozen sections were fixed in cold acetone (5 min), acetone/chloroform (v/v) (5 min), and acetone (5 min) and washed with PBS. Immunohistochemical procedures were performed as described previously (Rak et al. 1996). Positive reaction was visualized by incubating the slides with stable 3,3′-diaminobenzidine (DAB) for 10–20 min or 3-amino-9-ethylcarbazole (AEC) after CD31 staining. The sections were rinsed with distilled water, counterstained with Gill's hematoxylin for 1 min, and mounted with Universal Mount (Research Genetics). […] Sections analyzed for activated EGF-R were pretreated with goat anti-mouse IgG F(ab)2 fragment (1:10 dilution in PBS) for 4–6 h before incubation with the primary antibody. The positive reaction following staining for activated EGF-R was enhanced with osmium tetraoxide (4% aqueous solution) at a 1:1000 dilution in ddH2O after incubation with DAB.\nImmunofluorescence Double Staining for CD31/PECAM-1 (Endothelial Cells) and TUNEL (Apoptotic Cells). Frozen tissues were sectioned (8–10 μm), mounted on positively charged slides, air-dried for 30 min, and fixed in cold acetone for 5 min, acetone+chloroform (1:1) for 5 min, and acetone for 5 min. Samples were washed 3 times with PBS, incubated with protein-blocking solution containing 5% normal horse serum and 1% normal goat serum in PBS for 20 min at room temperature, and incubated with the appropriate dilution (1:400) of rat monoclonal anti-mouse CD31 antibody (human cross-reactive) over 18 h at 4° C. After the samples were rinsed 4 times for 3 min each with PBS, the slides were incubated with the appropriate dilution (1:200) of secondary goat anti-rat conjugated to Texas Red for 1 h at room temperature in the dark. Samples were washed twice with PBS containing 0.1% Brij and washed with PBS for 5 min.\nTUNEL was performed using a commercially available apoptosis detection kit with the following modifications: samples were fixed with 4% paraformaldehyde (methanol-free) for 10 min at room temperature, washed twice with PBS for 5 min, and then incubated with 0.2% Triton X-100 for 15 min at room temperature. After two washes of 5 min each with PBS, the samples were incubated with equilibration buffer (from kit) for 10 min at room temperature. The equilibration buffer was drained, and reaction buffer containing equilibration buffer, nucleotide mix, and TdT enzyme was added to the tissue sections and incubated in a humid atmosphere at 37° C. for 1 h in the dark. The reaction was terminated by immersing the samples in 2×SSC for 15 min. Samples were washed 3 times for 5 min to remove unincorporated fluorescein-dUTP. For quantification of […], the samples were incubated with 300 μg/ml of Hoechst stain for 10 min at room temperature. Fluorescent bleaching was minimized by treating slides with an enhancing reagent (Prolong solution). […]"}, "[3]": {"tested_on": "L3.6pl human pancreatic cancer cells", "text": "Animals and Orthotopic Implantation of Tumor Cells. Male athymic nude mice (NCr-nu) were purchased from the Animal Production Area of the National Cancer Institute-Frederick Cancer Research and Development Center (Frederick, Md.). The mice were housed and maintained in laminar flow cabinets under specific pathogen-free conditions in facilities approved by the American Association for Accreditation of Laboratory Animal Care and in accordance with current regulations and standards of the U. S. Department of Agriculture, U.S. Department of Health and Human Services, and the National Institutes of Health. The mice were used in accordance with institutional guidelines when they were 8 to 12 wk old.\nOrthotopic Implantation of Tumor Cells. To produce tumors, L3.6pl cells were harvested from subconfluent cultures by a brief exposure to 0.25% trypsin and 0.02% EDTA. Trypsinization was stopped with medium containing 10% FBS, and the cells were washed once in serum-free medium and resuspended in HBSS. Only suspensions consisting of single cells with greater than 90% viability were used for the injections. Cells were injected into the pancreas as described previously. The mice were killed when moribund (5–6 wk). The size and weight of the primary pancreatic tumors, the incidence of regional (celiac and paraaortal) lymph node metastasis, and the number of liver metastases were recorded. Histopathology confirmed the nature of the disease.\nTherapy of Established Human Pancreatic Carcinoma Tumors Growing in the Pancreas of Athymic Nude Mice. Seven days after implantation of tumor cells into the pancreas, 5 mice were killed and the presence of tumor lesions was determined. At this time, the median tumor volume was 18 mm^3. Histological examination confirmed the lesions to be actively growing pancreatic cancer.\nNecropsy Procedures and Histological Studies. Mice were euthanized and the body weight was determined. Primary tumors in the pancreas were excised and weighed. […] Visible liver metastases were counted with the aid of a dissecting microscope and processed for H&E staining. All macroscopically enlarged regional (celiac and paraaortal) lymph nodes were harvested, and the presence of metastatic disease was confirmed by histology."}, "IL-8": {"tested_on": "IL-8", "experiment": "In vitro expression of IL-8 by L3.6pl cells (ELISA)", "assay_type": "cell-based, human", "conditions": "72 h, 1 μM PKI166 or 10 nM gemcitabine, control 1440 pg/ml", "description": "as §1"}, "EGF-R": {"target": "T1, EGF-R (Homo sapiens, UniProt P00533)", "T1 construct": "endogenous in cells; host or cells: L3.6pl human pancreatic cancer cells", "T1 sequence (P00533 25-1210)": "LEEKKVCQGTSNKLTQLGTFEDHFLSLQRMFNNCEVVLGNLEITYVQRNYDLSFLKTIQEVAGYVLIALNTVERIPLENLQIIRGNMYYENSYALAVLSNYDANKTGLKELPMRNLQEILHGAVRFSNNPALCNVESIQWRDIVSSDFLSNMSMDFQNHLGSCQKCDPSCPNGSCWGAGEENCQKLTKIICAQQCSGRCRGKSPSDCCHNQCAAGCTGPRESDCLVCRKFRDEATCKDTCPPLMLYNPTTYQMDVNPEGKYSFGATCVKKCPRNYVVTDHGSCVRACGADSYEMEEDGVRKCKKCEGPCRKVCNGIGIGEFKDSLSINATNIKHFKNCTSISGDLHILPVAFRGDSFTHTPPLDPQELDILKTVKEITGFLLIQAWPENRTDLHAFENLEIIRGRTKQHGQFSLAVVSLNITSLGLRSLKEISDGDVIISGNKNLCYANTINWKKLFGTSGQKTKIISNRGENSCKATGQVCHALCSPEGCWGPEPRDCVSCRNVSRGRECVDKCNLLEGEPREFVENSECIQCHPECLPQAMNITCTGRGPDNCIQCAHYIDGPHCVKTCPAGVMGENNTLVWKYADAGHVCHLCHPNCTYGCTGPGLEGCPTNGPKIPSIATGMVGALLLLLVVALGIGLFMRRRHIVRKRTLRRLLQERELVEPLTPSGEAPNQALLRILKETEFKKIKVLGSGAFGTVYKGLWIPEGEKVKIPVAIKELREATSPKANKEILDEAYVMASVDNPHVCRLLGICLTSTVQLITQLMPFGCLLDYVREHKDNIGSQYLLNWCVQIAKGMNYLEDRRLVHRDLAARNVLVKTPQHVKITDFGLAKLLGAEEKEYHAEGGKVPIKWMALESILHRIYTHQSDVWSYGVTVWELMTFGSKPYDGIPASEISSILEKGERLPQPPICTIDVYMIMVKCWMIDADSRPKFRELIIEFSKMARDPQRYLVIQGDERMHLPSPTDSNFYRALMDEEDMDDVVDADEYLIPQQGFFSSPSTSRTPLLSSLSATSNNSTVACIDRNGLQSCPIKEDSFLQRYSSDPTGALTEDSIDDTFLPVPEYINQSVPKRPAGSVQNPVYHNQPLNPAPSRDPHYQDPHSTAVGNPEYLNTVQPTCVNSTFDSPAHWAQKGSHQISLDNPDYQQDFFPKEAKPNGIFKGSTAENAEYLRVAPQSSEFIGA", "experiment": "Western blot analysis of EGF-R autophosphorylation in L3.6pl cells", "assay_type": "cell-based", "conditions": "concentration of 10 μM (data not shown)", "description": "Western Blot Analysis of EGF-R Autophosphorylation following Treatment with PKI166. […] without 40 ng/ml rhEGF for 10 min, washed, and scraped into PBS containing 5 mM EDTA and 1 mM Na Orthovanadate, and centrifuged, and the pellet resuspended in lysis buffer (20 mM Tris-HCl, pH 8.0, 137 mM NaCl, 10% glycerol, 2 mM EDTA, 1 mM phenylmethylsulfonyl fluoride, 20 μM leupeptin, and 0.15 U/ml aprotinin) sonicated, and centrifuged to recover […] protein. Immunoprecipitation was performed using Mab anti-EGF-R (clone EGF-RI) as described previously (Perrotte et al. 1999; Parker et al. 1998). Immunoprecipitates were analyzed on 7.5% NaDodSO4-PAGE and transferred onto 0.45-μm nitrocellulose membranes. The filters were blocked with 3% bovine serum albumin in TDS (20 mM Tris-HCl, pH 7.5, 150 mM NaCl), probed with either polyclonal sheep anti-human EGF-R (1:1000) or monoclonal anti-phosphotyrosine (Mab 4G10) (1:2000) in TTBS (0.1% Tween 20 in TBS), and incubated with horseradish peroxidase-conjugated donkey anti-sheep IgG (1:2000) (Sigma Immunochemicals, St. Louis, Mo.) or sheep anti-mouse IgG (1:2000), respectively, in TTBS. Protein bands were visualized by ECL detection system. For an additional experiment, serum-starved L3.6pl cells were treated with gemcitabine (10 nM) with or without PKI166 (0.05, 0.5 μM) for 1 h, and then incubated with or without rhEGF (40 ng/ml) for 10 min. […]"}, "L3.6pl cells": {"tested_on": "L3.6pl cells", "experiment": "In vitro cytotoxicity assay (MTT)", "assay_type": "cell-based", "conditions": "Homo sapiens, 144 h, 6 days", "description": "In Vitro Cytotoxicity Assay. In all assays, 700–1000 tumor cells were seeded into 38-mm^2 wells of flat-bottomed 96-well plates in quadruplicate and allowed to adhere overnight. The cultures were then washed and refed with medium (negative control) or medium containing PKI166 with or without gemcitabine. […] Following a 2–4 h incubation in medium containing 0.42 mg/ml of MTT, the cells were lysed in DMSO. The conversion of MTT to formazan by metabolically viable cells was monitored by an MR-5000 96-well microtiter plate reader at 570 nm (Dynatech, Inc., Chantilly, Va.). Growth inhibition was calculated from the formula: Cytostasis (%)=[1−(A/B)]×100, where A is the absorbance of treated cells and B is the absorbance of the control cells."}, "[4]": {"conditions": "mean ± SD absorbance, ratio of tumor cell to normal pancreatic gland expression ×100, day 35"}}, "note": "Marks after values point to notes of the source that are not given here."}
{"smiles": "Nc1ccn([C@@H]2O[C@H](CO)[C@@H](O)C2(F)F)c(=O)n1", "note": "[gemcitabine]", "values": [{"measurement": "VEGF in culture supernatant", "setting": "VEGF", "result": 1280, "unit": "pg/mL"}, {"measurement": "Effect of increasing the dose on pancreatic tumor growth and metastasis", "setting": "[1]", "result": "did not further reduce"}, {"measurement": "ratio of PCNA-positive over TUNEL-positive cells", "setting": "[2]; calculated", "result": 1.1}, {"measurement": "Staining of pancreatic tumors for activated (phosphorylated) EGF-R", "setting": "[2]; immunohistochemistry of tumors from treated nude mice", "result": "stained positive"}, {"measurement": "IL-8", "setting": "[2]; [4]", "result": "299 ± 43"}, {"measurement": "VEGF", "setting": "[2]; [4]", "result": "298 ± 54"}, {"measurement": "PCNA+ tumor cells", "setting": "[2]; day 35", "result": "237±66", "unit": "positive cells/field"}, {"measurement": "TUNEL+ tumor cells", "setting": "[2]; day 35", "result": "225±95", "unit": "positive cells/field"}, {"measurement": "PCNA+ tumor cells", "setting": "[2]; day 35, listed as Gemcitabine", "result": "237 ± 66", "unit": "positive cells/field"}, {"measurement": "TUNEL+ tumor cells", "setting": "[2]; day 35, listed as Gemcitabine", "result": "225 ± 95^e positive cells/field"}, {"measurement": "CD (CD31, tumor MVD per field)", "setting": "[2]; day 35", "result": "52±18"}, {"measurement": "CD (CD31, tumor MVD per field)", "setting": "[2]; day 35, listed as Gemcitabine", "result": 52}, {"measurement": "Histologically positive regional lymph node metastases, share of animals", "setting": "[3]; day 35", "result": 90, "unit": "%"}, {"measurement": "Reduction of growth of primary pancreatic neoplasms", "setting": "[3]; human pancreatic carcinoma in pancreas of nude mice", "result": 45, "unit": "%"}, {"measurement": "IL-8 in culture supernatant", "setting": "IL-8", "result": 2000, "unit": "pg/mL"}, {"measurement": "Effect on autophosphorylation of EGF-R", "setting": "EGF-R", "result": "did not affect"}, {"measurement": "IC50", "setting": "L3.6pl cells; gemcitabine alone", "result": 880, "unit": "nM"}, {"measurement": "IC50", "setting": "L3.6pl cells; in the presence of PKI166 (0.03 μM)", "result": 520, "unit": "nM"}]}
